Source: patent US20060088886A1, “Topiramate analogs” (priority 2004, published 2006)

Assays:
[1] = cited from earlier work
[2] = tested on: anti-topiramate antibodies prepared with immunogen (17); test: ELISA binding inhibition study (avidity), free topiramate vs coated antigens; design: species or system Rabbit; details: for Abs Antigen 16 / Abs Antigen 19 / Abs Antigen 20: 405 nm
Procedure: ELISA plates for use in an ELISA assay are prepared in order to study the polyclonal antibody prepared as described in Example 21. As such, various topiramate antigens (16), (19), and (20) are coated on different ELISA plates before being subjected to the anti-topiramate antibody and competing free topiramate. More particularly, the topiramate antigens are diluted in coating buffer, and then added to the wells of ELISA plate. After the ELISA plate is inculcated for 60 min at 37° C., the solvent in the coating buffer is decanted and a blocking buffer is added to the plate. The plate is incubated again for 60 min at 37° C., and the solvent in the blocking buffer is decanted from the plate. The ELISA plate is then stored with the blocking agent in the wells at 2-8° C. for up to 1 week. The avidity of the anti-topiramate antibodies prepared with immunogen (17) for topirainate analogs are determined by a binding inhibition study. As such, samples are prepared in 1 mL of PBS at pH 7.4 with 0.1% BSA. A composition having 30% Bmax titer or 50% Bmax titer is used to divide the obtained titer value into approximately half the titer value. Using 30% Bmax, an antibody titer of 1:10000 is diluted to 1:5000 during the sample preparation stage. About 50 μL of topiramate at different concentrations or calibrator values, (0, 2, 4, 8, 16, 32 μg/ml) are then applied to a plate as prepared in accordance with Example 22. About 50 μL of the diluted antibody is dispensed into the plate, and the compositions in the plate are mixed for 1 min on a horizontal plate shaker. The plate is characterized by a first row not containing topiramate or anti-topiramate antibody, wherein the first row is used as a negative control. A second row not containing topiramate is used as the positive control. The plate is incubated for 60 min, and washed three times with 250 μL of PBS at pH 7.4 with 0.05% tween. About 125 μL of a diluted second antibody conjugate such as antigens (16), (19), or (20), in PBS at pH 7.4 is added to each well of the plate. Titer is determined experimentally by the plate being incubated for 60 min at 37° C. and washed 3 times with 250 μL PBS, pH 7.4 with 0.05% tween. Subsequently, about 125 μL of ABTS substrate is added to each well of the plate and incubated for 20 min.

[3] = dose escalation add-on studies, morning trough serum
[4] = Rabbit No. 5481, topiramate 2 μg/ml
[5] = Rabbit No. 5481, topiramate 4 μg/ml
[6] = Rabbit No. 5481, topiramate 8 μg/ml
[7] = Rabbit No. 5481, topiramate 16 μg/ml
[8] = Rabbit No. 5481, topiramate 32 μg/ml
[9] = Rabbit No. 5492, topiramate 2 μg/ml
[10] = Rabbit No. 5492, topiramate 4 μg/ml
[11] = Rabbit No. 5492, topiramate 8 μg/ml
[12] = Rabbit No. 5492, topiramate 16 μg/ml
[13] = Rabbit No. 5492, topiramate 32 μg/ml

- B/Bo Antigen 16 [2, 4]: 0.38
- B/Bo Antigen 19 [2, 4]: 0.40
- B/Bo Antigen 20 [2, 4]: 0.53
- Abs Antigen 16 [2, 4]: 0.29
- Abs Antigen 19 [2, 4]: 0.33
- Abs Antigen 20 [2, 4]: 0.32
- B/Bo Antigen 16 [2, 5]: 0.34
- B/Bo Antigen 19 [2, 5]: 0.30
- B/Bo Antigen 20 [2, 5]: 0.50
- Abs Antigen 16 [2, 5]: 0.26
- Abs Antigen 19 [2, 5]: 0.25
- Abs Antigen 20 [2, 5]: 0.30
- B/Bo Antigen 16 [2, 6]: 0.24
- B/Bo Antigen 19 [2, 6]: 0.24
- B/Bo Antigen 20 [2, 6]: 0.42
- Abs Antigen 16 [2, 6]: 0.18
- Abs Antigen 19 [2, 6]: 0.20
- Abs Antigen 20 [2, 6]: 0.25
- B/Bo Antigen 16 [2, 7]: 0.20
- B/Bo Antigen 19 [2, 7]: 0.22
- B/Bo Antigen 20 [2, 7]: 0.37
- Abs Antigen 16 [2, 7]: 0.15
- Abs Antigen 19 [2, 7]: 0.18
- Abs Antigen 20 [2, 7]: 0.22
- B/Bo Antigen 16 [2, 8]: 0.14
- B/Bo Antigen 19 [2, 8]: 0.18
- B/Bo Antigen 20 [2, 8]: 0.30
- Abs Antigen 16 [2, 8]: 0.11
- Abs Antigen 19 [2, 8]: 0.15
- Abs Antigen 20 [2, 8]: 0.18
- B/Bo Antigen 16 [2, 9]: 0.56
- B/Bo Antigen 19 [2, 9]: 0.38
- B/Bo Antigen 20 [2, 9]: 0.64
- Abs Antigen 16 [2, 9]: 0.25
- Abs Antigen 19 [2, 9]: 0.31
- Abs Antigen 20 [2, 9]: 0.45
- B/Bo Antigen 16 [2, 10]: 0.44
- B/Bo Antigen 19 [2, 10]: 0.28
- B/Bo Antigen 20 [2, 10]: 0.59
- Abs Antigen 16 [2, 10]: 0.20
- Abs Antigen 19 [2, 10]: 0.23
- Abs Antigen 20 [2, 10]: 0.41
- B/Bo Antigen 16 [2, 11]: 0.33
- B/Bo Antigen 19 [2, 11]: 0.23
- B/Bo Antigen 20 [2, 11]: 0.54
- Abs Antigen 16 [2, 11]: 0.15
- Abs Antigen 19 [2, 11]: 0.19
- Abs Antigen 20 [2, 11]: 0.38
- B/Bo Antigen 16 [2, 12]: 0.29
- B/Bo Antigen 19 [2, 12]: 0.20
- B/Bo Antigen 20 [2, 12]: 0.54
- Abs Antigen 16 [2, 12]: 0.13
- Abs Antigen 19 [2, 12]: 0.17
- Abs Antigen 20 [2, 12]: 0.38
- B/Bo Antigen 16 [2, 13]: 0.02
- B/Bo Antigen 19 [2, 13]: 0.18
- B/Bo Antigen 20 [2, 13]: 0.40
- Abs Antigen 16 [2, 13]: 0.01
- Abs Antigen 19 [2, 13]: 0.15
- Abs Antigen 20 [2, 13]: 0.28
Structure (SMILES): CC1(C)O[C@@H]2[C@@H](CO[C@@]3(COS(N)(=O)=O)OC(C)(C)O[C@@H]23)O1 [Topiramate, 2,3:4,5-di-O-isopropylidene-beta-D-fructopyranose sulfamate]
- serum concentration at which a reduction in seizure control was seen [1, 3]: greater than 75 μmol/L
- serum concentration with significant increase in side effects [1, 3]: > 60 µM
- systemic topiramate concentrations ([1]; patients receiving higher doses, up to 2000 mg): ≤ 80 µmol/L
